# Test results published in US8497240B2 (priority 2006, dated 2013).
# Several values for one entry are separate records, joined by “and”; a condition that tells them apart may be missing. Equal values may be shown once. Read-outs that look alike come from different tables or passages of the source.
# Experiments:
# human GIP receptor = target: T1, human GIP receptor (Homo sapiens, UniProt P48546); test: biochemical; assay type: binding
# T1 construct: expressed in transfected cells; host or cells: HEK293 (HEK-GIPR), membranes
# T1 sequence (P48546 22-466): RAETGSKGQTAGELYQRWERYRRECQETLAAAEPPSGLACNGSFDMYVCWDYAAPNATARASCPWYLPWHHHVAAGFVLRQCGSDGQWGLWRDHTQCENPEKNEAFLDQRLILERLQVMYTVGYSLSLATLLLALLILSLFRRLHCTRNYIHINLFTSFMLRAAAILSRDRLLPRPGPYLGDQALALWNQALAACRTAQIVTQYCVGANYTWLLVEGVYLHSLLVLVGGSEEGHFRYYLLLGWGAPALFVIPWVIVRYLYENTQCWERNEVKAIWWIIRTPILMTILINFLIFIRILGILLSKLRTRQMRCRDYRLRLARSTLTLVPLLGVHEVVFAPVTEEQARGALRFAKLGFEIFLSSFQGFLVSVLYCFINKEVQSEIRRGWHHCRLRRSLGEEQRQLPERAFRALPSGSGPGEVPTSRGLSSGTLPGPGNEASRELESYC
# [1] = IVGTT duration of action assay (single SC injection before glucose); assay type: in vivo, rat; conditions: compared with 0601GIP3794 (794), dosed at −120 min
# Method: To determine a duration of action using the IVGTT assay, the sample was injected SC as a single injection at one time point indicated (e.g., t=−240, −120, −60 or −30) prior to administration of glucose. IV glucose was given at t=0.
# [2] = assay type: in vivo, NIH/Swiss mice; conditions: 30 nmol/kg
# Method: (§1) In FIG. 3A, bars represent mean±sd, n=6-10. […] Gavage (1.5 g/kg) was given at t=0, Sample was taken at t=30 min. […] In FIG. 3B, points represent mean±sem, n=8-15.
# Peptide was injected IP at t=−5 minutes into 4-hour fasted NIH/Swiss female mice. […] In FIG. 17 points represent mean+/−sem. […] Samples were taken at t=60, t=120 and t=180.
# [3] = assay type: in vivo, NIH/Swiss mice; conditions: 80 nmol/kg, AUC240
# Method: as §1
# Points represent mean±sem.
# [4] = read-out: (% Inh 10 nm, GIP-LF Assay)
# [5] = read-out: GIP RBA (% Inh 10 nM)
compound,measurement,setting,value
CC[C@H](C)[C@H](NC(=O)[C@H](CO)NC(=O)[C@H](Cc1ccc(O)cc1)NC(=O)[C@H](CC(=O)O)NC(=O)[C@H](CO)NC(=O)[C@@H](NC(=O)[C@H](Cc1ccccc1)NC(=O)[C@@H](NC(=O)CNC(=O)[C@H](CCC(=O)O)NC(=O)[C@@H](C)NC(=O)[C@@H](N)Cc1ccc(O)cc1)[C@@H](C)O)[C@@H](C)CC)C(=O)N[C@@H](C)C(=O)N[C@@H](CCSC)C(=O)N[C@@H](CC(=O)O)C(=O)N[C@@H](CCCCN)C(=O)N[C@H](C(=O)N[C@@H](Cc1c[nH]cn1)C(=O)N[C@@H](CCC(N)=O)C(=O)N[C@@H](CCC(N)=O)C(=O)N[C@@H](CC(=O)O)C(=O)N[C@@H](Cc1ccccc1)C(=O)N[C@H](C(=O)N[C@@H](CC(N)=O)C(=O)N[C@@H](Cc1c[nH]c2ccccc12)C(=O)N[C@@H](CC(C)C)C(=O)N[C@@H](CC(C)C)C(=O)N[C@@H](C)C(=O)N[C@@H](CCC(N)=O)C(=O)N[C@@H](CCCCN)C(=O)N1CCC[C@H]1C(=O)N[C@@H](CCCCN)C(=O)N[C@@H](CCCCN)C(=O)N[C@@H](CC(C)C)C(=O)N[C@@H](CCCCN)C(=O)N1CCC[C@H]1C(=O)N[C@@H](CO)C(N)=O)C(C)C)[C@@H](C)CC [Compound 0601GIP4822],inhibition at 0.01 µM,human GIP receptor; [4],95.4%
same,inhibition at 0.01 µM,human GIP receptor; [5],95.4%
same,Duration In The Rat IVGTT Assay,[1],<794@ −120 min
same,OGTT/GL (%),[2],"−23, %"
CC[C@H](C)[C@H](NC(=O)[C@H](CO)NC(=O)[C@H](Cc1ccc(O)cc1)NC(=O)[C@H](CC(=O)O)NC(=O)[C@H](CO)NC(=O)[C@@H](NC(=O)[C@H](Cc1ccccc1)NC(=O)[C@@H](NC(=O)CNC(=O)[C@H](CCC(=O)O)NC(=O)[C@@H](C)NC(=O)[C@@H](N)Cc1ccc(O)cc1)[C@@H](C)O)[C@@H](C)CC)C(=O)N[C@@H](C)C(=O)N[C@@H](CC(C)C)C(=O)N[C@@H](CC(=O)O)C(=O)N[C@@H](CCCCN)C(=O)N[C@H](C(=O)N[C@@H](Cc1c[nH]cn1)C(=O)N[C@@H](CCC(N)=O)C(=O)N[C@@H](CCC(N)=O)C(=O)N[C@@H](CC(=O)O)C(=O)N[C@@H](Cc1ccccc1)C(=O)N[C@H](C(=O)N[C@@H](CC(N)=O)C(=O)N[C@@H](Cc1c[nH]c2ccccc12)C(=O)N[C@@H](CC(C)C)C(=O)N[C@@H](CC(C)C)C(=O)N[C@@H](C)C(=O)N[C@@H](CCC(N)=O)C(=O)N[C@@H](CCCCN)C(=O)N1CCC[C@H]1C(=O)N[C@@H](CCCCN)C(=O)N[C@@H](CCCCN)C(=O)N[C@H](C(=O)N[C@@H](CCCNC(=N)N)C(=O)N[C@@H](Cc1ccc(O)cc1)C(=O)N[C@@H](CO)C(N)=O)[C@@H](C)CC)C(C)C)[C@@H](C)CC [0601GIP4807],inhibition at 0.01 µM,human GIP receptor; [4],96.1%
same,inhibition at 0.01 µM,human GIP receptor; [5],96.1%
same,Duration In The Rat IVGTT Assay,[1],<794 @ −120 min
same,OGTT/GL (%),[2],"−27, % and −27, 30%"
CC[C@H](C)[C@H](NC(=O)[C@H](CO)NC(=O)[C@H](Cc1ccc(O)cc1)NC(=O)[C@H](CC(=O)O)NC(=O)[C@H](CO)NC(=O)[C@@H](NC(=O)[C@H](Cc1ccccc1)NC(=O)[C@@H](NC(=O)CNC(=O)[C@H](CCC(=O)O)NC(=O)[C@@H](C)NC(=O)[C@@H](N)Cc1ccc(O)cc1)[C@@H](C)O)[C@@H](C)CC)C(=O)N[C@@H](C)C(=O)N[C@@H](CCSC)C(=O)N[C@@H](CC(=O)O)C(=O)N[C@@H](CCCCN)C(=O)N[C@H](C(=O)N[C@@H](Cc1c[nH]cn1)C(=O)N[C@@H](CCC(N)=O)C(=O)N[C@@H](CCC(N)=O)C(=O)N[C@@H](CC(=O)O)C(=O)N[C@@H](Cc1ccccc1)C(=O)N[C@H](C(=O)N[C@@H](CC(N)=O)C(=O)N[C@@H](Cc1c[nH]c2ccccc12)C(=O)N[C@@H](CC(C)C)C(=O)N[C@@H](CC(C)C)C(=O)N[C@@H](C)C(=O)N[C@@H](CCC(N)=O)C(=O)N[C@@H](CCCCN)C(=O)N1CCC[C@H]1C(=O)N[C@@H](CCCCN)C(=O)N[C@@H](CCC(N)=O)C(=O)N[C@H](C(=O)N[C@@H](CCCNC(=N)N)C(=O)N[C@@H](Cc1ccc(O)cc1)C(=O)N[C@@H](CO)C(N)=O)[C@@H](C)CC)C(C)C)[C@@H](C)CC [Compound 0601GIP4854],inhibition at 0.01 µM,human GIP receptor; [4],93.5%
same,Duration In The Rat IVGTT Assay,[1],<794@ −120 min
same,OGTT/GL (%),[2],"−14, %"
CC[C@H](C)[C@H](NC(=O)[C@H](CO)NC(=O)[C@H](Cc1ccc(O)cc1)NC(=O)[C@H](CC(=O)O)NC(=O)[C@H](CO)NC(=O)[C@@H](NC(=O)[C@H](Cc1ccccc1)NC(=O)[C@@H](NC(=O)CNC(=O)[C@H](CCC(=O)O)NC(=O)[C@@H](C)NC(=O)[C@@H](N)Cc1ccc(O)cc1)[C@@H](C)O)[C@@H](C)CC)C(=O)N[C@@H](C)C(=O)N[C@@H](CCSC)C(=O)N[C@@H](CC(=O)O)C(=O)N[C@@H](CCCCN)C(=O)N[C@H](C(=O)N[C@@H](Cc1c[nH]cn1)C(=O)N[C@@H](CCC(N)=O)C(=O)N[C@@H](CCC(N)=O)C(=O)N[C@@H](CC(=O)O)C(=O)N[C@@H](Cc1ccccc1)C(=O)N[C@H](C(=O)N[C@@H](CC(N)=O)C(=O)N[C@@H](Cc1c[nH]c2ccccc12)C(=O)N[C@@H](CC(C)C)C(=O)N[C@@H](CC(C)C)C(=O)N[C@@H](C)C(=O)N[C@@H](CCC(N)=O)C(=O)N[C@@H](CCCCN)C(=O)N1CCC[C@H]1C(=O)N[C@@H](C)C(=O)N[C@@H](CCCCN)C(=O)N[C@H](C(=O)N[C@@H](CCCNC(=N)N)C(=O)N[C@@H](Cc1ccc(O)cc1)C(=O)N[C@@H](CO)C(N)=O)[C@@H](C)CC)C(C)C)[C@@H](C)CC [Compound 0601GIP4815],inhibition at 0.01 µM,human GIP receptor; [4],89%
same,inhibition at 0.01 µM,human GIP receptor; [5],89%
same,Duration In The Rat IVGTT Assay,[1],<794@ −120 min
same,OGTT/GL (%),[2],"−23, %"
CC[C@H](C)[C@H](NC(=O)[C@H](CO)NC(=O)[C@H](Cc1ccc(O)cc1)NC(=O)[C@H](CC(=O)O)NC(=O)[C@H](CO)NC(=O)[C@@H](NC(=O)[C@H](Cc1ccccc1)NC(=O)[C@@H](NC(=O)CNC(=O)[C@H](CCC(=O)O)NC(=O)[C@@H](C)NC(=O)[C@@H](N)Cc1ccc(O)cc1)[C@@H](C)O)[C@@H](C)CC)C(=O)N[C@@H](C)C(=O)N[C@@H](CCSC)C(=O)N[C@@H](CC(=O)O)C(=O)N[C@@H](CCCCN)C(=O)N[C@H](C(=O)N[C@@H](Cc1c[nH]cn1)C(=O)N[C@@H](CCC(N)=O)C(=O)N[C@@H](CCC(N)=O)C(=O)N[C@@H](CC(=O)O)C(=O)N[C@@H](Cc1ccccc1)C(=O)N[C@H](C(=O)N[C@@H](CC(N)=O)C(=O)N[C@@H](Cc1c[nH]c2ccccc12)C(=O)N[C@@H](CC(C)C)C(=O)N[C@@H](CC(C)C)C(=O)N[C@@H](C)C(=O)N[C@@H](CCC(N)=O)C(=O)N[C@@H](CCCCN)C(=O)N1CCC[C@H]1C(=O)N[C@@H](CO)C(=O)N1CCC[C@H]1C(=O)N[C@@H](CCCCN)C(=O)N[C@@H](CCCCN)C(=O)N[C@H](C(=O)N[C@@H](CCCNC(=N)N)C(=O)N[C@@H](Cc1ccc(O)cc1)C(=O)N[C@@H](CO)C(N)=O)[C@@H](C)CC)C(C)C)[C@@H](C)CC [Compound 0601GIP4823],inhibition at 0.01 µM,human GIP receptor; [4],94.1%
same,inhibition at 0.01 µM,human GIP receptor; [5],94.1%
same,Duration In The Rat IVGTT Assay,[1],<794@ −120 min
same,Basal Gluc. Low. 80 nmol/Kg,[3],"−23%,"
CC[C@H](C)[C@H](NC(=O)[C@H](CO)NC(=O)[C@H](Cc1ccc(O)cc1)NC(=O)[C@H](CC(=O)O)NC(=O)[C@H](CO)NC(=O)[C@@H](NC(=O)[C@H](Cc1ccccc1)NC(=O)[C@@H](NC(=O)CNC(=O)[C@H](CCC(=O)O)NC(=O)[C@@H](C)NC(=O)[C@@H](N)Cc1ccc(O)cc1)[C@@H](C)O)[C@@H](C)CC)C(=O)N[C@@H](C)C(=O)N[C@@H](CCSC)C(=O)N[C@@H](CC(=O)O)C(=O)N[C@@H](CCCCN)C(=O)N[C@H](C(=O)N[C@@H](Cc1c[nH]cn1)C(=O)N[C@@H](CCC(N)=O)C(=O)N[C@@H](CCC(N)=O)C(=O)N[C@@H](CC(=O)O)C(=O)N[C@@H](Cc1ccccc1)C(=O)N[C@H](C(=O)N[C@@H](CC(N)=O)C(=O)N[C@@H](Cc1c[nH]c2ccccc12)C(=O)N[C@@H](CC(C)C)C(=O)N[C@@H](CC(C)C)C(=O)N[C@@H](C)C(=O)N[C@@H](CCC(N)=O)C(=O)N[C@@H](CCCCN)C(=O)N1CCC[C@H]1C(=O)N[C@@H](CCC(N)=O)C(=O)N[C@@H](CCCCN)C(=O)N[C@H](C(=O)N[C@@H](CCCNC(=N)N)C(=O)N[C@@H](Cc1ccc(O)cc1)C(=O)N[C@@H](CO)C(N)=O)[C@@H](C)CC)C(C)C)[C@@H](C)CC [Compound 0601GIP4853],inhibition at 0.01 µM,human GIP receptor; [4],91%
same,Duration In The Rat IVGTT Assay,[1],<794@ −120 min
same,OGTT/GL (%),[2],"−25, %"
CC[C@H](C)[C@H](NC(=O)[C@H](CCCCN)NC(=O)[C@H](CC(=O)O)NC(=O)[C@H](CC(C)C)NC(=O)[C@H](C)NC(=O)[C@@H](NC(=O)[C@H](CO)NC(=O)[C@H](Cc1ccc(O)cc1)NC(=O)[C@H](CC(=O)O)NC(=O)[C@H](CO)NC(=O)[C@@H](NC(=O)[C@H](Cc1ccccc1)NC(=O)[C@@H](NC(=O)CNC(=O)[C@H](CCC(=O)O)NC(=O)[C@@H](C)NC(=O)[C@H](Cc1ccc(O)cc1)NC(=O)[C@@H](N)CC(C)C)[C@@H](C)O)[C@@H](C)CC)[C@@H](C)CC)C(=O)N[C@@H](C)C(=O)N[C@@H](CCC(N)=O)C(=O)N[C@@H](CCC(N)=O)C(=O)N[C@@H](CCC(=O)O)C(=O)N[C@@H](Cc1ccccc1)C(=O)N[C@H](C(=O)N[C@@H](CC(N)=O)C(=O)N[C@@H](Cc1c[nH]c2ccccc12)C(=O)N[C@@H](CC(C)C)C(=O)N[C@@H](CC(C)C)C(=O)N[C@@H](C)C(=O)N[C@@H](CCC(N)=O)C(=O)N[C@@H](CCCCN)C(=O)N1CCC[C@H]1C(=O)N[C@@H](CCCCN)C(=O)N[C@@H](CCCCN)C(=O)N[C@H](C(=O)N[C@@H](CCCNC(=N)N)C(=O)N[C@@H](Cc1ccc(O)cc1)C(=O)N[C@@H](CO)C(N)=O)[C@@H](C)CC)C(C)C [0601GIP4802],inhibition at 0.01 µM,human GIP receptor; [4],87.3%
same,inhibition at 0.01 µM,human GIP receptor; [5],87.3%
same,Duration In The Rat IVGTT Assay,[1],<794 @ −120 min
same,OGTT/GL (%),[2],"−28, %"
